We go through three molecules from patent publication US20190144828A1, “HAEMATOPOIETIC STEM/PROGENITOR CELLS” (priority 2016, published 2019).

The subject of one assay is HOXA and CDX genes. The experiment in a line: RT-PCR of HOXA and CDX genes in differentiating hESC cultures supplemented with SB, CHIR or SB/CHIR. The note with it: added from differentiation days 2 to 4; RT-PCR at d4 and d7. The format is cell-based, human. On the procedure: Total RNA was prepared from ES cells and dissociated EBs using the Qiagen RNeasy kit or the Bioline Isolate II RNA Mini Kit according to the manufacturers' instructions. cDNA was reverse transcribed using random hexamer priming and Superscript III (Invitrogen) or Tetro (Bioline) cDNA synthesis kits as specified by the manufacturer. Human RUNX1 isoform specific primers (Table 1) were based on those designed for mouse Runx1 previously. For other genes, TaqMan gene expression probes and reagents (Applied Biosystems) were used for quantitative real-time PCR analysis and GAPDH was used as the reference gene to normalize data.
The HES3 and H9 human embryonic stem cell lines used in these studies were obtained from ES Cell International (now owned by Biotime Inc) and WiCell. The human ESC work was approved by the Monash Medical Centre and Royal Children's Hospital Human Research Ethics Committees. Culture and enzymatic passaging of hESC lines was performed as reported in Ng et al. Nature Protocols 3, 768-776 (2008). […] Brightfield and fluorescence images comparing RUNX1C^GFP/w with RUNX1C^GFP/GFP cell cultures shown in FIG. 1b were representative of 3 independent experiments. […]

The test system of assay [1] is anterior and posterior HOXA genes. The assay is described as follows: HOXA gene expression in hPSCs with EC23 and/or SB CHIR (FIG. 29). The format is cell-based, human. Particulars: d2-4. On the procedure: hPSCs were differentiated in medium supplemented with CHIR99021, BMP4, VEGF, SCF, ACTIVIN A and FGF2 (denoted CH BVSAF in FIG. 29) from d0-4, or with an additional pulse of SB431542 and CHIR99021 (denoted SB CHIR in FIG. 29) from d2-4. Cultures also were treated with the retinoic acid analogue EC23 at 0, 10^−5 M or 10^−7 M concentrations from d2-4 (denoted 0, 10-5 and 10-7, respectively in FIG. 29). […] Gene expression was normalized to GAPDH and is shown in arbitrary units in FIG. 29.

Turning to `Cc1c[nH]c(-c2cnc(NCCNc3ccc(C#N)cn3)nc2-c2ccc(Cl)cc2Cl)n1` [CHIR, CHIR99021], the “HOXA gene expression compared with control cultures” value in the assay on HOXA and CDX genes is “increased HOXA9 and HOXA10 expression”.
Regarding `CC1(C)CCC(C)(C)c2cc(C#Cc3ccc(C(=O)O)cc3)ccc21` [EC23], the “effectiveness on HOXA gene induction” value in assay [1] (10^−5 M) and in assay [1] (10^−7 M) was “effective” throughout.
In the case of `NC(=O)c1ccc(-c2nc(-c3ccc4c(c3)OCO4)c(-c3ccccn3)[nH]2)cc1` [SB, SB431542], the “HOXA gene expression compared with control cultures” value in the assay on HOXA and CDX genes was “increased HOXA3, HOXA7 and HOXA9 expression”.
